From patent US11285130B2, “Treatment of mitochondrial diseases” (Khondrion IP B.V., priority 2017, dated 2022)
pEC50: −log10 of the molar value. Read-outs that look alike come from different tables or passages of the source.

How the values were obtained:
[1] = target: PgP efflux pump (Homo sapiens, UniProt P08183); test: In vitro efflux; format: in vitro ADME
[2] = target: hERG potassium channel (Homo sapiens, UniProt Q12809); test: hERG blocking; format: biochemical
[3] = male, human, in vivo, 7 days
[4] = SAD study safety and tolerability (adverse events), healthy male volunteers
[5] = Pharmacodynamic analysis of oxidized and reduced glutathione, MAD study; format: in vivo, human; settings: Day 7, blood
Description: Blood samples for pharmacodynamic analyses were taken pre-dose and at 3, 6 and 24 h post dosing at Day 7 (MAD). All samples were stored in −80° C. until analysis. Quantification of oxidized and reduced glutathione was performed at York Bioanalytical solutions using a previously described validated method (Moore T et al, J Chromatogr B Analyt Technol Biomed Life Sci 2013, 929:51-55). Change from baseline in the concentrations of oxidized and reduced glutathione (GSH/GSSG) was calculated.

[6] = test system: primary human fibroblasts from patients with MELAS; test: Oxidative stress-induced cell death (BSO) assay, MELAS patient fibroblasts; format: cell-based; settings: Homo sapiens, Fibroblast; fibroblasts derived from MELAS patients, 100 μM BSO; unit as printed for KH176; read-out: EC50, protection from oxidative stress-induced cell death
Source text: To determine the effective concentration of the compounds (the concentrations that protect patient cells against oxidative stress-induced cell death) the applicant established an assay using stressed primary human fibroblasts from patients with Leigh syndrome, MELAS or LHON diseases. Utilising the inherent oxidative stress of fibroblasts from patients with mitochondrial disease, their oxidative burden was further increased by depleting cellular glutathione with an inhibitor of glutathione synthesis, L-buthionine-(S,R)-sulfoximine (BSO). […] Cells were seeded at a density of 3000 cells/well in a 96-well format and incubated with increasing concentrations of compounds in combination with BSO (100 μM, Sigma-aldrich). One day after treatment, the cells were washed twice and stained with a solution of 5 μM calcein-AM (Life technologies C3100MP) during 25 min in 199 medium without phenol red (Life technologies, 11043-023) at room temperature. After 2 washes with PBS (Phosphate buffered saline) the plate was read on a fluorescence plate reader (Fluostar Omega, BMG labtech) and the percentage of cell viability determined as a function of fluorescence intensity.

[7] = SAD study pharmacokinetic analysis; format: in vivo, human; settings: for AUC(0-t) / Cmax / Tmax / AUC(0-inf) / half-life: male, human, plasma, oral; for AUC(0-t): read-out: AUClast (Geomean); for Cmax: read-out: Cmax (Geomean); for AUC(0-inf): read-out: AUC0-inf (Geomean)
Description: Dose escalation to the next dose level was done after evaluation of the safety and the first 24-hour pharmacokinetic results of the previous dose. […] Anticipated exposures at this starting dose were just below the Minimum Anticipated Biological Effect Level (MABEL). Placebo (an in taste and appearance matching oral liquid) was also administered orally on one occasion in the single-ascending dose part and b.i.d. for 7 Days in the MAD part. […] All samples were stored at <-70° C. until analysis. […] For mean value calculations, all values below the limit of quantification (LOQ) were set to zero. […] The non-compartmental pharmacokinetic analysis was performed using Phoenix, Version 6.3 (Pharsight Corporation, Mountain View, Calif., USA). […] The PK parameters were calculated on the basis of the actual blood sampling time points relative to dosing. Selected pharmacokinetic parameters (Cmax, tmax, t1/2, AUClast and AUC0-int) following single-dose administration and selected pharmacokinetic parameters Cmax, tmax, [NT], the accumulation factor (Racc) and time to reach steady state) following multiple dose administration were determined. In urine, the percentage of dose excreted in urine was determined for the single- and multiple-dose administration.

[8] = 10 mg, SAD, KH176 10 mg, fasted
[9] = 30 mg, SAD, KH176 30 mg, fasted
[10] = 100 mg, SAD, KH176 100 mg, fasted
[11] = 300 mg, SAD, KH176 300 mg, fasted
[12] = 800 mg, SAD, KH176 800 mg, fasted
[13] = 2000 mg, SAD, KH176 2000 mg, fasted

Chain of PgP efflux pump (P08183 whole entry): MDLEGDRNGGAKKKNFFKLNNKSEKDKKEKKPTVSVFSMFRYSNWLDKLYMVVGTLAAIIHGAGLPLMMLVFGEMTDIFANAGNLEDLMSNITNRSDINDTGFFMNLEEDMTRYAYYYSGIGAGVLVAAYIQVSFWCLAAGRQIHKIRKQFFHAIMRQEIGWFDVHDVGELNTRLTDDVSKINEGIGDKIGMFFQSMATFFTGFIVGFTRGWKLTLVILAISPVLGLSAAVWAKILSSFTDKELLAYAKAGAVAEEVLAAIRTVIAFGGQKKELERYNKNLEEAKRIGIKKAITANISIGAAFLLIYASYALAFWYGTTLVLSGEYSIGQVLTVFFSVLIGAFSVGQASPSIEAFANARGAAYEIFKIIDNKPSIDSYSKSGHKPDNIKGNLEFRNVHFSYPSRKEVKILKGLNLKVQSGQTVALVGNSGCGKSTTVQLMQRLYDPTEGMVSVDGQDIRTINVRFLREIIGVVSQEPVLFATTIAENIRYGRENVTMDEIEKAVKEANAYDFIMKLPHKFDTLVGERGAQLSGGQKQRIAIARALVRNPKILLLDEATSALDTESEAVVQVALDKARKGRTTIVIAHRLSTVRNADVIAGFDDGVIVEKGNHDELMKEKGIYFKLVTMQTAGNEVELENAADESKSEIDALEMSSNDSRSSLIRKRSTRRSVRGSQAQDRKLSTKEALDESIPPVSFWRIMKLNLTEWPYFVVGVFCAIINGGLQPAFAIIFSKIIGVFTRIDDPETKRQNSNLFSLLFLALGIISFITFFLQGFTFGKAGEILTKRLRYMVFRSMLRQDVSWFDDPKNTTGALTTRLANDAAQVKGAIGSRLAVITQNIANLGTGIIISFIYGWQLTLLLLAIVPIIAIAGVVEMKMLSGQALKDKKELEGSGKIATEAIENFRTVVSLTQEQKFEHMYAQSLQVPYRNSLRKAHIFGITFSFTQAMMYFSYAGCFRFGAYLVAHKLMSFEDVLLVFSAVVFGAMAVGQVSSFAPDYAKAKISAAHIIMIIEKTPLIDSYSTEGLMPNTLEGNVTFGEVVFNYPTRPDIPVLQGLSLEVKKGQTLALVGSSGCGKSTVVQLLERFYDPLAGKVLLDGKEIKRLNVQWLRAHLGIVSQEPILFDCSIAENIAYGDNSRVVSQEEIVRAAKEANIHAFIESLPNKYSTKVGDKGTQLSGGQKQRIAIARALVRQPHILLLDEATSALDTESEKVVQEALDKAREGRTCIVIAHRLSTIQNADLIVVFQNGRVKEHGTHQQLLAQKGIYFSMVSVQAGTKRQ
Chain of hERG potassium channel (Q12809 whole entry): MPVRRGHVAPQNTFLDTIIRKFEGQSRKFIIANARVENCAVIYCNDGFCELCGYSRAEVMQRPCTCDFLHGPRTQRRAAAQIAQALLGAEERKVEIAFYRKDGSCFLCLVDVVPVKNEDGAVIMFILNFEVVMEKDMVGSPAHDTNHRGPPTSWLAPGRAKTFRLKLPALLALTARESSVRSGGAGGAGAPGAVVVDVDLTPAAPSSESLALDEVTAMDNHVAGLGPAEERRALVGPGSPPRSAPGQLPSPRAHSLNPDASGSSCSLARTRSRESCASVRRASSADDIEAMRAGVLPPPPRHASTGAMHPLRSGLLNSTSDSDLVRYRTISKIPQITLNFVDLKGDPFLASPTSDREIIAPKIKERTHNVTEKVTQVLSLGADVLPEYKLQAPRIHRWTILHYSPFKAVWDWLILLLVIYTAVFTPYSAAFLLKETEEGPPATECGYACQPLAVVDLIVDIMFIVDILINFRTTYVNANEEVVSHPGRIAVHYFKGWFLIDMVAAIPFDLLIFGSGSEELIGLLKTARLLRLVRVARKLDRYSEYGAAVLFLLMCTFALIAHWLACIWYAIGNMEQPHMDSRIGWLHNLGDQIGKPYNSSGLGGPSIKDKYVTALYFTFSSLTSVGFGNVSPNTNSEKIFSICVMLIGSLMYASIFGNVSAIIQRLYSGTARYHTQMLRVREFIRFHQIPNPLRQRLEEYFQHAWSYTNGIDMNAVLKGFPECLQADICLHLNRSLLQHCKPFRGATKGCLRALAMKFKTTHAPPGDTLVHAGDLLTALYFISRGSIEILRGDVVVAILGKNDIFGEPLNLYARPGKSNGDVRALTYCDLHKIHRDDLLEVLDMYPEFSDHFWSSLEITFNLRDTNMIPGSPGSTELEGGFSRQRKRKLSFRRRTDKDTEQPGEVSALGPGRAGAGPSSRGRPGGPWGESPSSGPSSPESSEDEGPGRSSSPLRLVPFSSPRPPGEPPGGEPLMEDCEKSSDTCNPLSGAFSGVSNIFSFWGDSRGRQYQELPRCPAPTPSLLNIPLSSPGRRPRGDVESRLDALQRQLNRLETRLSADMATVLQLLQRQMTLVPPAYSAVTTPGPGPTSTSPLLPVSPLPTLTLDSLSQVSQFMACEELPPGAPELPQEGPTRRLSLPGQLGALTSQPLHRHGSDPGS

SMILES: Cc1c(C)c2c(c(C)c1O)CC[C@@](C)(C(=O)N[C@@H]1CCCNC1)O2.Cl [KH176, (S)-6-hydroxy-2,5,7,8-tetramethyl-N-((R)-piperidin-3-yl)chroman-2-carboxamide hydrochloride]
- efflux / excretion [1]: excreted by the PgP efflux pump
- IC50 of hERG blocking relative to the Cmax for the highest dose [2]: 3 times
- AEs rated mild in severity [3]: 27
- moderate AEs [3]: 2
- subjects reporting AEs [3]: 10 subjects
- TEAE: Influenza like illness (subjects) ([4]; SAD 10 mg (N = 4)): 0 n (%)
- TEAE: Influenza like illness (subjects) ([4]; SAD 30 mg (N = 4)): 0 n (%)
- TEAE: Influenza like illness (subjects) ([4]; SAD 100 mg (N = 4)): 0 n (%)
- TEAE: Influenza like illness (subjects) ([4]; SAD 100 mg + Food (N = 4)): 0 n (%)
- TEAE: Influenza like illness (subjects) ([4]; SAD 300 mg (N = 4)): 0 n (%)
- TEAE: Influenza like illness (subjects) ([4]; SAD 800 mg (N = 6)): 0 n (%)
- TEAE: Influenza like illness (subjects) ([4]; SAD 2000 mg (N = 4)): 0 n (%)
- GSH/GSSG ratio, change from baseline [5]: No significant alterations
- pEC50 [6]: 6.74
- AUC0-inf ratio (fed/fasted), 90% CI ([7]; 100 mg, fed versus fasted): 1.28 (90% Cl 1.12-1.45)
- administered dose excreted in urine as unchanged KH176 ([7]; SAD): approximately 12%
- AUC(0-t) [7, 8]: 75 ng·h/mL
- Cmax [7, 8]: 12.9 ng/mL
- Tmax ([7]; 10 mg, SAD, KH176 10 mg, fasted, read-out: tmax* (median)): 1.25 h
- AUC(0-inf) [7, 9]: 474 ng·h/mL
- AUC(0-t) [7, 9]: 389 ng·h/mL
- Cmax [7, 9]: 56.2 ng/mL
- half-life ([7]; 30 mg, SAD, KH176 30 mg, fasted, read-out: t1/2 (Geomean) (converted)): 10.3 h
- Tmax ([7]; 30 mg, SAD, KH176 30 mg, fasted, read-out: tmax* (median)): 1.25 h
- AUC(0-inf) [7, 10]: 1540 ng·h/mL
- AUC(0-t) [7, 10]: 1310 ng·h/mL
- Cmax [7, 10]: 167 ng/mL
- half-life ([7]; 100 mg, SAD, KH176 100 mg, fasted, read-out: t1/2 (Geomean) (converted)): 9.1 h
- Tmax ([7]; 100 mg, SAD, KH176 100 mg, fasted, read-out: tmax* (median)): 1 h
- AUC(0-inf) ([7]; 100 mg, SAD, KH176 100 mg, fed): 1970 ng·h/mL
- AUC(0-t) ([7]; 100 mg, SAD, KH176 100 mg, fed): 1650 ng·h/mL
- Cmax ([7]; 100 mg, SAD, KH176 100 mg, fed): 165 ng/mL
- half-life ([7]; 100 mg, SAD, KH176 100 mg, fed, read-out: t1/2 (Geomean) (converted)): 9.09 h
- Tmax ([7]; 100 mg, SAD, KH176 100 mg, fed, read-out: tmax* (median)): 2.5 h
- Tmax ([7]; 100 mg, fasted condition (100 mg), read-out: median tmax): ~1 h
- Tmax ([7]; 100 mg, fed condition (100 mg, high calorie/high fat breakfast), read-out: median tmax): 2.5 h
- AUC(0-inf) [7, 11]: 7500 ng·h/mL
- AUC(0-t) [7, 11]: 6320 ng·h/mL
- Cmax [7, 11]: 766 ng/mL
- half-life ([7]; 300 mg, SAD, KH176 300 mg, fasted, read-out: t1/2 (Geomean) (converted)): 9.64 h
- Tmax ([7]; 300 mg, SAD, KH176 300 mg, fasted, read-out: tmax* (median)): 0.992 h
- AUC(0-inf) [7, 12]: 25800 ng·h/mL
- AUC(0-t) [7, 12]: 21000 ng·h/mL
- Cmax [7, 12]: 2170 ng/mL
- half-life ([7]; 800 mg, SAD, KH176 800 mg, fasted, read-out: t1/2 (Geomean) (converted)): 9.8 h
- Tmax ([7]; 800 mg, SAD, KH176 800 mg, fasted, read-out: tmax* (median)): 1.5 h
- AUC(0-inf) [7, 13]: 79100 ng·h/mL
- AUC(0-t) [7, 13]: 61200 ng·h/mL
- Cmax [7, 13]: 5990 ng/mL
- half-life ([7]; 2000 mg, SAD, KH176 2000 mg, fasted, read-out: t1/2 (Geomean) (converted)): 11.5 h
- Tmax ([7]; 2000 mg, SAD, KH176 2000 mg, fasted, read-out: tmax* (median)): 0.75 h
- Tmax ([7]; SAD, across doses, read-out: median tmax): 0.75 to 1.5 h
- half-life ([7]; SAD, approximate, across dose groups, read-out: t1/2 (converted)): ~10 h
- Tmax ([7]; single- and multiple-dose administration, read-out: median tmax): 0.75 to 2 h
